According to patent publication EP1501797B1, “3-(SUBSTITUTED AMINO)-1H-INDOLE-2-CARBOXYLIC ACID ESTER AND 3-(SUBSTITUTED AMINO)-BENZO[B]THIOPHENE-2-CARBOXYLIC ACID ESTER DERIVATIVES AS INTERLEUKIN-4 GENE EXPRESSION INHIBITORS” (Aventis Pharmaceuticals Inc., priority 2002, dated 2003):
“And” between values parts separate entries of the source, which are not always exact repeats. Identical values can stand only once. Like-named read-outs stand apart in the source and are kept apart here.

Columns and labels:
[1] = system: human IL-13 promoter; experiment: IL-13 Luc assay in Jurkat cells (2.1IL-13 Luc); format: cell-based; details: Jurkat cell line; concentration not given; 480 min
[2] = Human primary Th2 cells, proliferation (viability, MTS assay); format: cell-based; details: human, th2 cells, MTS, read-out: Proliferation (% control) mean
Protocol: (§1) Briefly, CD4^+CD45RA^+ T cells, isolated from donor peripheral blood mononuclear cells of healthy donors, are educated in the presence of anti-CD3/CD28 antibodies and various growth factors to obtain either a Thl-like or Th2-like phenotypes as determined by the known cytokine profiles of these two cell types.
(§2) Peripheral blood mononuclear cells (PBMC) are prepared from human blood by Ficoll-Hypacque (Pharmacia). The cells are washed two times in Hanks balanced salt solution (HBSS) and counted.
(§3) Naive T cells (CD4^+/CD45RA ) are prepared by negative selection method using following antibodies and Dynabeads: anti-CD8, anti-HLA-DR, (where HLA means human leucocyte antigen) anti-CD14, anti-CD16, anti-CD19, anti-CD45RO antibodies (all from R&D Systems, 1-2 µg/ml) are added to the cells, and the cells are kept on ice for 30 min. The cells are washed two times in HBSS, and goat anti- mouse Ig-beads, (bead:target ratio, 5:1) are added. The cells and beads are slowly rotated at 4°C for 20 min. (following the protocol supplied from Dynal). The supernatant is removed and fresh goat anti-mouse Ig-beads are added to the supernatant, which is slowly rotated at 4°C for 20 min. The cells are counted and phenotypically characterized by flow cytometric analysis.
(§4) CD4^+/CD45RA^+ cells at a density of 10^6/ml in RPMI, is prepared and added to RPMI medium containing 10% Hyclone serum/ glutamine and 1-2 µg/ml anti-CD28 Ab. The cells are split in two aliquots. For Th1 cells: anti-IL-4 Ab (1-2 µg/ml), IFN-γ (1 µg/ml, or 5000 units/ml) are added to the wells. For Th2 cells: IL-4 (100-200 ng/ml), anti-IFN-γ neutralizing Ab (1-2 µg/ml), anti-IL-12 neutralizing Ab (1-2 µg/ml) are added into the wells. […] The cells are transferred to fresh wells and grown in 200 units/ml IL-2 for 2 weeks by feeding them every other day with IL-2 containing medium and splitting the cultures 1:2 or 1:3 as needed. The degree of polarization is determined by intracellular staining of cells with anti-IFN-γ and anti-IL-4 antibodies from Pharmingen, and using flow cytometry from Becton Dickinson (BD), according to manufacturers description. The cells are stimulated with PHA and alloantigens at day 14 and 28 as described below. Eight days after the second allostimulation the cells can be used for compound screening or frozen for future use. For compound testing, large quantities of Th1 and Th2 cells derived from a given donor (NYTh1 and NYTh2) were expanded and frozen as aliquots in liquid nitrogen. The cells are thawed and cultured as and when needed. The thawed cells are stimulated with alloantigen/PHA combination. The cells are used for compound screening after 8-10 days in culture.
(§5) Re-stimulation by allogeneic cells: Human PBMCs, to be used as alloantigens, are isolated from freshly drawn blood by Ficoll separation. […] Cells are counted and diluted to a final concentration of 2 x 10^6/ml in medium containing 10 µg/ml PHA and 200 units/ml IL-2.
(§6) Ninetysix well Falcon tissue culture plates (Fisher Scientific) are coated with 100 microliters per well of 10 µg/ml anti-CD3 (PharMingen) antibody in phosphate buffered saline (PBS) and stored at 4°C one day before the experiment.
(§7) On the day of assay, anti-CD3 antibody coated plates are washed with PBS once to remove all soluble anti-CD3 antibody. […] All compounds and controls are assayed in triplicates.

[3] = system: Human Th2 cells; experiment: as above; format: cell-based; details: Human primary Th2 cells; combined data from 10 different experiments; read-out: Prol. IC50
Protocol: as §1, §2, §3, §4, §5, §6, §7

[4] = system: Anti-OVA IgE; experiment: OVA induced allergen specific IgE in mice; format: in vivo; details: bled at day 15, vehicle 150.8
Protocol: Female mice (5-8 week age, Balb/c, Charles River) were used in this study. Ovalbumin (Sigma) was adsorbed to Aluminum Hydroxide Adsorptive Gel, Inter, and injected 10 µg/0.2ml/mouse intraperitoneally on experimental day 0 and day 7. […] They were bled at day 15. Serum ovalbumin specific IgE levels were determined by standard ELISA using a goat anti-mouse IgE antibody labeled with alkaline phosphatase. The anti-OVA titers were determined by making serial dilutions of the test sera and comparing with vehicle control.

[5] = system: IgG1 Anti-DNP Antibody; experiment: In vivo model of humoral immunity in mice (DNP-KLH), IgG1 anti-DNP antibody
Protocol: Female Balb/c mice, each weighing approximately 20 to 25 grams each, aged 5 to 8 weeks are used. Each experiment uses 30 mice.
The antigen for immunization is 2,4-dinitrophenyl (DNP) or 2,4,6-trinitrophenyl (TNP) conjugated to keyhole limpet haemocyanin (KLH). The antigen (100 µg/mouse) is adsorbed to an adjuvant (colloidal aluminum hydroxide) and given i.p. to animal in a total volume of 0.2-0.3 ml.
Animals are randomly divided into 5 groups of 6 mice each. Group 1 is a positive control group, Groups 2, 3, and 4 are test compound groups, and Group 5 is a vehicle control group. Compounds may be given by i.n., i.p., p.o., s.c., i.m. or i.v. administration. […] On day 8 after the immunization, mice are bled by cardiac puncture under anesthesia (isoflurane), and the serum samples are stored at -20°C until required for antibody analysis. The anesthetized animals are euthanized with overdosage of sodium pentobarbital at the end of experiment. Statistical analysis of the data are performed using ANOVA.
Mice are immunized with a hapten carrier conjugate, DNP-KLH, and anti-DNP antibody levels are determined in a isotype specific manner as described above. […]

[6] = system: IL-4 mRNA; experiment: Human Th2 IL-4 transcriptional assay (Taqman, GAPDH normalised); format: cell-based; details: 18 hours, stimulated CD3/CD28 = 100%
Protocol: RNAs were isolated from the harvested cells and analyzed for IL-4 message by Taqman. GAPDH message was used as an internal standard for normalization. The percent activity was calculated by treating the values from not drug treated, anti-CD3 and anti-CD28 stimulated Th2 cells as 100%. […] In the second experiment IL-4 protein levels were also determined by standard ELISA in culture supernatants as described earlier. […]

[7] = system: IL-4; experiment: Human primary Th2 cells, anti-CD3/anti-CD28 activated, IL-4 ELISA; format: cell-based
Protocol: as §1, §2, §3, §4, §5, §6, §7

## O=C(O)c1[nH]c2ccccc2c1Nc1ccncc1 [Example 28, 3-(4-Pyridinylamino)-1H-indole-2-carboxylic acid]
[1]
  2.1-IL-13 - Luc (% of control): 50 ± 12 % of control
[2]; 0.01 µM
  viability at 0.01 µM: 89.5%
[2]; 0.03 µM
  viability at 0.03 µM: 85%
[2]; 0.1 µM
  viability at 0.1 µM: 86.7%
[2]; 0.3 µM
  viability at 0.3 µM: 80.6%
[2]; 1 µM
  viability at 1 µM: 77.2%
[2]; 3 µM
  viability at 3 µM: 72%
[2]; 10 µM
  viability at 10 µM: 71.5%
[3]
  IC50: > 10 µM
[4]; 3 mg/kg intraperitoneally once a day from day 6 to day 14
  Anti-OVA IgE: 41.8
[4]; 10 mg/kg intraperitoneally once a day from day 6 to day 14
  Anti-OVA IgE: 45.6
[5]; individual animals 1-6, dose not stated
  IgG1 Anti-DNP Antibody Titer: 72.42 and 185.22 and 19.83 and 40.19 and 83.11 and 37.83
[5]; vehicle 167.69 +/-18.19, dose not stated
  IgG1 Anti-DNP Antibody Titer Mean+/-SE: 73.10 +/-24.38
[5]; versus vehicle
  IgG1 Anti-DNP Antibody Titer Inhibition: 56.5%
[6]; read-out: RNA Exp #1 % activity
  mrna remaining at 10 µM: 44%
[6]; read-out: RNA Exp #2 % activity
  mrna remaining at 10 µM: 45%
[7]; 10 µM, 18 hrs, ELISA of culture supernatants, stimulated control 625.0+/- 23
  IL-4 PROTEIN Exp #2: 286.2 ± 19 pg/mL
[7]; Homo sapiens, 0.01 µM, 48 hr, read-out: IL-4 (% control) mean
  activity at 0.01 µM: 102%
[7]; Homo sapiens, 0.03 µM, 48 hr, read-out: IL-4 (% control) mean
  activity at 0.03 µM: 65.3%
[7]; Homo sapiens, 0.1 µM, 48 hr, read-out: IL-4 (% control) mean
  activity at 0.1 µM: 59.8%
[7]; Homo sapiens, 0.3 µM, 48 hr, read-out: IL-4 (% control) mean
  activity at 0.3 µM: 45%
[7]; Homo sapiens, 1 µM, 48 hr, read-out: IL-4 (% control) mean
  activity at 1 µM: 42.5%
[7]; Homo sapiens, 3 µM, 48 hr, read-out: IL-4 (% control) mean
  activity at 3 µM: 36.4%
[7]; Homo sapiens, 10 µM, 48 hr, read-out: IL-4 (% control) mean
  activity at 10 µM: 30.8%
[7]; Human primary Th2 cells, combined data from 10 different experiments
  IC50: 240 nM
[7]; Human primary Th2 cells, ratio of IC50
  IFN-γ/ IL-4 Ratio: > 41
